Reference: US20240366661A1, “COMPOSITIONS FOR AND METHODS OF TREATING A SUBJECT HAVING INFLAMMATION” (The George Washington University, priority 2022, published 2024)
Entries after “also recorded” stand apart in the source; their conditions may differ.

How the values were obtained:
[1] = test system: murine bone marrow derived macrophages (BMDMs); experiment: QRT-PCR of M2 markers in bone marrow derived macrophages pre-treated with HDAC11 inhibitor and polarized to M2; assay type: cell-based; conditions: inhibitor 5 μM pre-treatment overnight prior to M2 polarization
Description: (§1) Upon treatment with M-CSF, bone marrow-derived monocytes (BMDM) differentiate into naïve (M0) macrophages. In the case of peritoneal exudate macrophages (PEMs), naïve M0 macrophages are isolated from the peritoneal cavity. These M0 macrophages are pre-treated with HDAC11 inhibitor followed by polarization to M2 macrophages with IL4 and IL13 cytokines or other cytokine mix including but not limited to IL10 and TGF beta.
Next, HDAC11 inhibitors were evaluated for their ability to modulate the function of macrophages. […] These commercially available HDAC11 inhibitors were tested on macrophages in-vitro to identify their macrophage modulatory properties. Next, BMDMs were isolated and polarized towards M2 phenotype with HDAC11 inhibitor pre-treatment overnight.

HDAC11 = target: T1, HDAC11 (Homo sapiens, UniProt Q96DB2); conditions: literature statement; cited from earlier work
T1 sequence (Q96DB2 1-347): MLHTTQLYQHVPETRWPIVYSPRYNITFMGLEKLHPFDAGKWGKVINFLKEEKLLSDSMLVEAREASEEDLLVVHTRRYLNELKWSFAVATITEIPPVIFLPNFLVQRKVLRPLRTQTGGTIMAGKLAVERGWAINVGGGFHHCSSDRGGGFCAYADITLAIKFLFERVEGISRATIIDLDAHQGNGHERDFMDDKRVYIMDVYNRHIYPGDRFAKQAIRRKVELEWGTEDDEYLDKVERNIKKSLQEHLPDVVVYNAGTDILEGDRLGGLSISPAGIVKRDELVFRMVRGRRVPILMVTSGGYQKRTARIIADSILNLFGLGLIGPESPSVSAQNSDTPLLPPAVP

[2] = test system: peritoneal exudated macrophages (PEMs); experiment: ELISA of IL-10 and TGFβ cytokines in peritoneal exudate macrophages treated with HDAC11 inhibitor; assay type: cell-based; conditions: dose-dependent
Source text: as §1, with “beta. […] A chromatin immunoprecipitation assay further confirmed that HDAC11 binded preferentially to the distal promoter region of IL10, and negatively regulated its gene expression (FIG. 1B). […] This confirmed that the HDAC11 inhibitor was highly specific, and that it could recapitulate the effect of HDAC11 genetic knock down.” for “beta.”
Therefore, HDAC11 inhibitor treated M2 macrophages as a cell therapy and or topical HDAC11 inhibitor application are excellent to treat inflammatory diseases.

## CC1(C)c2cccc(C(=O)NO)c2CN1c1cnc(C(F)(F)F)cn1 [FT895]
[1]
  Arg1 expression: did not affect
  Fizz1 expression: further enhanced the expression of Fizz1
  Mrc1 expression: did not affect

## CCCCCCCCCCCCCCCCNNC(=O)c1cccs1 [SIS17]
HDAC11
  inhibition of HDAC11 (demyristoylation activity; potency and selectivity): inhibit the demyristoylation activity of HDAC11 without inhibiting other HDACs
[1]
  Arg1 expression: increased the expression of Arg1 and Mrc1
  Fizz1 expression: further enhanced the expression of Fizz1
  Mrc1 expression: increased the expression of Arg1 and Mrc1

## COc1ccccc1NC(=O)NCc1ccc(C(=O)NO)cc1 [elevenostat]
[2]
  expression of IL-10 cytokine: increased the expression of IL-10 and TGFβ cytokines in a dose-dependent manner; also recorded: dose dependent increase
  expression of TGFβ cytokine: increased the expression of IL-10 and TGFβ cytokines in a dose-dependent manner; also recorded: dose dependent increase
